PubChem BioAssay AID256 (DTP/NCI, 2004)
“And” between values parts separate entries of the source, which are not always exact repeats. Identical values can stand only once. Inconclusive results and toxic doses are left out.

Tested on: CD2F1 mice, L1210 leukemia ip, survival T/C
Assay: NCI In Vivo Anticancer Drug Screen. Data for tumor model L1210 Leukemia (intraperitoneal) in CD2F1 (CDF1) mice
Conditions: higher = longer survival
Procedure, shortened: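 Activity against a transplanted murine tumor was judged by comparing the compound group with a vehicle group. The outcome in the treated animals was divided by that in the controls.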

[1] = endpoint: mean survival time, dose: 100.0 mg/kg/injection, schedule: Q01DX009 (ip), vehicle: saline with Tween-80
[2] = endpoint: mean survival time, dose: 200.0 mg/kg/injection, schedule: Q01DX009 (ip), vehicle: saline with Tween-80
[3] = endpoint: mean survival time, dose: 400.0 mg/kg/injection, schedule: Q01DX009 (ip), vehicle: saline with Tween-80
[4] = endpoint: mean survival time, dose: 100.0 mg/kg/injection, schedule: Q01DX001 (ip), vehicle: saline
[5] = endpoint: mean survival time, dose: 200.0 mg/kg/injection, schedule: Q01DX001 (ip), vehicle: saline
[6] = endpoint: mean survival time, dose: 400.0 mg/kg/injection, schedule: Q01DX001 (ip), vehicle: saline
[7] = endpoint: mean survival time, dose: 100.0 mg/kg/injection, schedule: Q04DX003 (ip), vehicle: saline with Tween-80
[8] = endpoint: mean survival time, dose: 200.0 mg/kg/injection, schedule: Q04DX003 (ip), vehicle: saline with Tween-80
[9] = endpoint: mean survival time, dose: 400.0 mg/kg/injection, schedule: Q04DX003 (ip), vehicle: saline with Tween-80
[10] = endpoint: mean survival time, dose: 150.0 mg/kg/injection, schedule: Q01DX001 (ip), vehicle: other

In the case of `O=[N+]([O-])c1cccc2c1ccc1cccnc12`, the T/C (endpoint: mean survival time, dose: 100.0 mg/kg/injection, schedule: Q04DX002 (ip), vehicle: saline with Tween-80) is reported as 90 % of control, the T/C (endpoint: mean survival time, dose: 200.0 mg/kg/injection, schedule: Q04DX002 (ip), vehicle: saline with Tween-80) is reported as 95 % of control and the T/C (endpoint: mean survival time, dose: 400.0 mg/kg/injection, schedule: Q04DX002 (ip), vehicle: saline with Tween-80) is reported as 98 % of control.

With `NC(=O)N1c2c(nc(N)[nH]c2=O)NCC1CNc1ccc(C(=O)NC(CCC(=O)O)C(=O)O)cc1` (stereo not given) the T/C (endpoint: mean survival time, dose: 100.0 mg/kg/injection, schedule: Q01DX001 (ip), vehicle: sodium bicarbonate) was 102 % of control, the T/C (endpoint: mean survival time, dose: 200.0 mg/kg/injection, schedule: Q01DX001 (ip), vehicle: sodium bicarbonate) was 97 % of control and the T/C (endpoint: mean survival time, dose: 400.0 mg/kg/injection, schedule: Q01DX001 (ip), vehicle: sodium bicarbonate) was 96 % of control.

`C/C=C(\C)c1cc(=O)c2c(C)cc3c(c2o1)C(=O)c1c(O)c(C2CC(C)(N(C)C)C(OC(C)=O)C(C)O2)cc(C2CC(N(C)C)C(O)C(C)O2)c1C3=O` (stereo not given) was tested, and the T/C (endpoint: mean survival time, dose: 0.15 mg/kg/injection, schedule: Q01DX009 (ip), vehicle: saline) was 103 % of control, the T/C (endpoint: mean survival time, dose: 0.31 mg/kg/injection, schedule: Q01DX009 (ip), vehicle: saline) was 98 % of control and the T/C (endpoint: mean survival time, dose: 0.62 mg/kg/injection, schedule: Q01DX009 (ip), vehicle: saline) was 115 % of control and 100 % of control. The T/C (endpoint: mean survival time, dose: 1.25 mg/kg/injection, schedule: Q01DX009 (ip), vehicle: saline) was 106 % of control and 111 % of control, the T/C (endpoint: mean survival time, dose: 2.5 mg/kg/injection, schedule: Q01DX009 (ip), vehicle: saline) was 105 % of control and 108 % of control and the T/C (endpoint: mean survival time, dose: 5.0 mg/kg/injection, schedule: Q01DX009 (ip), vehicle: saline) was 115 % of control.

In the case of `COc1ccc(-c2ncn(-c3ccc(S(=O)(=O)O)cc3)c2-c2ccc(OC)cc2)cc1`, the T/C (endpoint: mean survival time, dose: 100.0 mg/kg/injection, schedule: Q04DX003 (ip), vehicle: Klucel (hydroxypropylcellulose) (HPC)) is reported as 95 % of control, the T/C (endpoint: mean survival time, dose: 200.0 mg/kg/injection, schedule: Q04DX003 (ip), vehicle: Klucel (hydroxypropylcellulose) (HPC)) is reported as 95 % of control and the T/C (endpoint: mean survival time, dose: 400.0 mg/kg/injection, schedule: Q04DX003 (ip), vehicle: Klucel (hydroxypropylcellulose) (HPC)) is reported as 102 % of control.

In the case of `CCCCOP(=O)(OCCCC)[O][Pb]([CH2]C)([CH2]C)[CH2]C`, the T/C (endpoint: mean survival time, dose: 6.25 mg/kg/injection, schedule: Q04DX003 (ip), vehicle: saline with Tween-80) is reported as 97 % of control and the T/C (endpoint: mean survival time, dose: 12.5 mg/kg/injection, schedule: Q04DX003 (ip), vehicle: saline with Tween-80) is reported as 92 % of control.

In the case of `CCOC(=O)NC1CCc2cc(OC)c(OC)c(OC)c2-c2ccc(OC)c(=O)cc21` (stereo not given), the T/C (endpoint: median survival time, dose: 2.5 mg/kg/injection, schedule: Q01DX005 (ip), vehicle: Klucel (hydroxypropylcellulose) (HPC)) is reported as 171 % of control, the T/C (endpoint: median survival time, dose: 3.0 mg/kg/injection, schedule: Q01DX005 (ip), vehicle: Klucel (hydroxypropylcellulose) (HPC)) is reported as 164 % of control and the T/C (endpoint: median survival time, dose: 5.0 mg/kg/injection, schedule: Q01DX005 (ip), vehicle: Klucel (hydroxypropylcellulose) (HPC)) is reported as 179 % of control and 187 % of control. For the same compound, the T/C (endpoint: median survival time, dose: 8.33 mg/kg/injection, schedule: Q01DX005 (ip), vehicle: Klucel (hydroxypropylcellulose) (HPC)) was 107 % of control.

`CC1(C)CC(Br)(Cc2ccccc2)C(=O)c2ccccc21` (stereo not given) was tested, and the T/C [1] was 95 % of control, the T/C [2] was 94 % of control and the T/C [3] was 94 % of control.

For `NC(CS(=O)c1ccc(Cl)cc1)C(=O)O` (stereo not given), the T/C (endpoint: mean survival time, dose: 6.25 mg/kg/injection, schedule: Q01DX009 (ip), vehicle: saline with Tween-80) was 90 % of control, the T/C (endpoint: mean survival time, dose: 12.5 mg/kg/injection, schedule: Q01DX009 (ip), vehicle: saline with Tween-80) was 94 % of control and the T/C (endpoint: mean survival time, dose: 25.0 mg/kg/injection, schedule: Q01DX009 (ip), vehicle: saline with Tween-80) was 96 % of control.

For `O=c1c(Br)cocc1Br`, the T/C (endpoint: mean survival time, dose: 100.0 mg/kg/injection, schedule: Q04DX003 (ip), vehicle: saline sonified) was 104 % of control, the T/C (endpoint: mean survival time, dose: 200.0 mg/kg/injection, schedule: Q04DX003 (ip), vehicle: saline sonified) was 102 % of control and the T/C (endpoint: mean survival time, dose: 400.0 mg/kg/injection, schedule: Q04DX003 (ip), vehicle: saline sonified) was 102 % of control.

In the case of `Cc1nc(N)[nH]c(=O)c1CCCNS(=O)(=O)c1ccc(CN)cc1`, the T/C [4] is reported as 110 % of control, the T/C [5] is reported as 101 % of control and the T/C [6] is reported as 100 % of control.

In the case of `CCCCCCCCCCC(CCCCCCCCCC)C1CC(C)CCC1C` (stereo not given), the T/C [4] is reported as 94 % of control, the T/C [5] is reported as 97 % of control and the T/C [6] is reported as 97 % of control.

`CS(=O)(=O)c1ncc[nH]1` was tested, and the T/C [7] was 100 % of control, the T/C [8] was 109 % of control and the T/C [9] was 109 % of control.

`CCN(CCP(c1ccccc1)c1ccccc1)CCP(c1ccccc1)c1ccccc1` was tested, and the T/C [10] was 110 % of control and the T/C (endpoint: mean survival time, dose: 300.0 mg/kg/injection, schedule: Q01DX001 (ip), vehicle: other) was 115 % of control.

In the case of `O=[N+]([O-])c1cc(I)c(I)c(I)c1`, the T/C [7] is reported as 98 % of control, the T/C [8] is reported as 104 % of control and the T/C [9] is reported as 98 % of control.

With `CCOC(=O)CCN1C(=O)NC(C)(c2ccccc2)C1=O` (stereo not given) the T/C (endpoint: mean survival time, dose: 100.0 mg/kg/injection, schedule: Q01DX009 (ip), vehicle: Klucel (hydroxypropylcellulose) (HPC)) was 100 % of control, the T/C (endpoint: mean survival time, dose: 200.0 mg/kg/injection, schedule: Q01DX009 (ip), vehicle: Klucel (hydroxypropylcellulose) (HPC)) was 98 % of control and the T/C (endpoint: mean survival time, dose: 400.0 mg/kg/injection, schedule: Q01DX009 (ip), vehicle: Klucel (hydroxypropylcellulose) (HPC)) was 114 % of control.

For `CCCCCCC(O)/C=C/c1ccc(Cl)cc1` (stereo not given), the T/C [7] was 110 % of control, the T/C [8] was 102 % of control and the T/C [9] was 111 % of control.

For `C[n+]1c2ccccc2cc2ccccc21`, the T/C (endpoint: mean survival time, dose: 12.0 mg/kg/injection, schedule: Q04DX003 (ip), vehicle: saline) was 102 % of control and the T/C (endpoint: mean survival time, dose: 25.0 mg/kg/injection, schedule: Q04DX003 (ip), vehicle: saline) was 98 % of control.

`COc1ccc(OC)c(C(=O)CC(O)(C(F)(F)F)C(F)(F)F)c1` was tested, and the T/C [1] was 97 % of control, the T/C [2] was 101 % of control and the T/C [3] was 97 % of control.

In the case of `CCCC/C=C/C(=O)OCC`, the T/C (endpoint: mean survival time, dose: 50.0 mg/kg/injection, schedule: Q01DX009 (ip), vehicle: saline with Tween-80) is reported as 91 % of control and 96 % of control, the T/C [1] is reported as 103 % of control and 101 % of control and the T/C [2] is reported as 103 % of control and 101 % of control.

In the case of `CCOC(=O)Nc1ccc2nnn(C3OC(CO)C(O)C3O)c2n1` (stereo not given), the T/C (endpoint: mean survival time, dose: 12.5 mg/kg/injection, schedule: Q01DX005 (ip), vehicle: water) is reported as 94 % of control, the T/C (endpoint: mean survival time, dose: 25.0 mg/kg/injection, schedule: Q01DX005 (ip), vehicle: water) is reported as 102 % of control and the T/C (endpoint: mean survival time, dose: 50.0 mg/kg/injection, schedule: Q01DX005 (ip), vehicle: water) is reported as 98 % of control. The T/C (endpoint: mean survival time, dose: 100.0 mg/kg/injection, schedule: Q01DX005 (ip), vehicle: water) was 102 % of control, the T/C (endpoint: mean survival time, dose: 200.0 mg/kg/injection, schedule: Q01DX005 (ip), vehicle: water) was 94 % of control and the T/C (endpoint: mean survival time, dose: 400.0 mg/kg/injection, schedule: Q01DX005 (ip), vehicle: water) was 94 % of control.

In the case of `O=S1(=O)CC2(C1)CS(=O)(=O)C2`, the T/C (endpoint: mean survival time, dose: 100.0 mg/kg/injection, schedule: Q01DX001 (ip), vehicle: saline with Tween-80) is reported as 103 % of control and the T/C (endpoint: mean survival time, dose: 200.0 mg/kg/injection, schedule: Q01DX001 (ip), vehicle: saline with Tween-80) is reported as 90 % of control.

In the case of `O=C1N(Cc2ccccc2)CCS1(=O)=O`, the T/C (endpoint: mean survival time, dose: 75.0 mg/kg/injection, schedule: Q01DX001 (ip), vehicle: other) is reported as 96 % of control and the T/C [10] is reported as 106 % of control.

With `[CH3][Pb]([CH3])([CH3])[Cl]` the T/C (endpoint: mean survival time, dose: 1.56 mg/kg/injection, schedule: Q01DX009 (ip), vehicle: saline) was 97 % of control, the T/C (endpoint: mean survival time, dose: 1.56 mg/kg/injection, schedule: Q04DX002 (ip), vehicle: saline) was 101 % of control and the T/C (endpoint: mean survival time, dose: 3.13 mg/kg/injection, schedule: Q01DX009 (ip), vehicle: saline) was 87 % of control. For the same compound, the T/C (endpoint: mean survival time, dose: 3.13 mg/kg/injection, schedule: Q04DX002 (ip), vehicle: saline) was 108 % of control, the T/C (endpoint: mean survival time, dose: 6.25 mg/kg/injection, schedule: Q04DX002 (ip), vehicle: saline) was 92 % of control and the T/C (endpoint: mean survival time, dose: 12.5 mg/kg/injection, schedule: Q04DX002 (ip), vehicle: saline) was 93 % of control.

`c1ccc(SCN2CCN(CSc3ccccc3)CC2)cc1` was tested, and the T/C (endpoint: mean survival time, dose: 100.0 mg/kg/injection, schedule: Q01DX009 (ip), vehicle: saline) was 91 % of control.
